Here are results for one compound from publication PMC12035797, “Peptidomimetics Activating the Proteasome: A New Perspective for Parkinson’s Treatment” (Journal of Medicinal Chemistry, 2025).

Data set [1] concerns human 20S proteasome (Tau-441 substrate). In words: Tau-441 degradation by h20S (SDS-PAGE). It counts as biochemical. The note with it: 10 μM modulator, 37 °C, 1.5 h. The protocol: The effectiveness of the compounds has also been examined by using proteins as substrates. By means of SDS-PAGE electrophoresis, we checked the extent to which model proteins were digested by the 20S proteasome alone and after its stimulation by 10 μM modulators. […] After incubation with the enzyme in the presence of each modulator, less than 40% of synuclein remained. […] The experiment was performed as it was described.[36] Briefly, α-synuclein (rPeptide, […], USA) and Tau-441 (Novus Biologicals, Centennial, CO, USA) were dissolved in 20 mM HEPES buffer (pH 7.4) and mixed with a human 20S proteasome. Samples were incubated at 37 °C for 1.5 h, after which the reaction was terminated by adding 4× Laemmli buffer. The levels of undigested proteins were evaluated by SDS-PAGE. The band intensities of proteins incubated with […] in the presence of a modulator were compared to those of proteins incubated with the enzyme alone, which were set as 100%. Three independent experiments were performed for each protein. The results are presented as the means ± SD. One-way ANOVA with Tukey's post-hoc test was used to determine statistical significance.

Data set [2] has as its system endogenous α-synuclein in primary cortical cultures. In words: Endogenous α-synuclein level in primary cortical cultures (Simple Western Jess). The note with it: 2.5 μM, 7 days; statistical significance only for 1g. It is filed as cell-based, mouse. As to the method:
The effectiveness of the compounds has also been examined by using proteins as substrates. By means of SDS-PAGE electrophoresis, we checked the extent to which model proteins were digested by the 20S proteasome alone and after its stimulation by 10 μM modulators. […] After incubation with the enzyme in the presence of each modulator, less than 40% of synuclein remained. […] All animal experiments were performed following the protocols evaluated and approved by the Laboratory Animal Centre of the University of Helsinki (Ethics Approval License KEK24-013) and in accordance with the European Community Guidelines (Directive 2010/63/EU). […] The viability and number of neuronal cells were calculated automatically in an Automated Cell Counter (Bio-Rad), plated at a density of 1,000,000 cells per well on 6-well plates and cultured in Neurobasal A Medium (Thermo Fisher Scientific (Gibco), #12349015, Waltham, MA, USA) supplemented with GlutaMAX (Thermo Fisher Scientific (Gibco) #A1286001, Waltham, MA, USA), B-27 Supplement (Thermo Fisher Scientific (Gibco), #17504001, Waltham, MA, USA), and 200 ng/mL Primocin (Invitrogen, ant-pm-1, San Diego, CA, USA). […] Protein concentrations in the cell lysates were determined using a bicinchoninic acid (BCA) assay (Sigma-Aldrich, 3B9643-1L-KC, MO, USA) according to the manufacturer’s instructions. […]

The nature of data set [3]: PAMPA, blood–brain barrier mimic. It is filed as in vitro ADME. To be noted: 500 μM, 37 °C, 22 h. An excerpt: In neurodegenerative diseases, proteins prone to aggregation accumulate in the neuronal cells. Therefore, a necessary feature of potential drugs is not only permeability across the cell membrane but also the ability to cross the blood-brain barrier (BBB). To preliminarily investigate this feature, we performed parallel artificial membrane permeation assays (PAMPA) including as positive controls propranolol and Tat47-57, known for their ability to penetrate the blood-brain barrier. Dopamine hydrobromide was included as a negative control. For comparison, we also tested compound 1a, which is devoid of a CPP sequence. […] The PAMPA was performed as previously described.[21] Briefly, a 2% solution of porcine brain lipid membrane (PBL; Avanti Polar Lipids Inc., Alabaster, AL, USA) in anhydrous dodecane was used as a mimic of the blood-brain barrier. Propranolol hydrochloride (Merck, Darmstadt, Germany) and Tat47-57 (synthesized in-house) served as positive controls, while dopamine hydrobromide (Merck, Darmstadt, Germany) was used as a negative control. Stock solutions of the tested compounds and controls were prepared at a concentration of 10 mM in deionized water and then diluted to 500 μM using 0.1 M PBS containing 5% DMSO. The donor-acceptor plate assembly was incubated at 37 °C while being shaken at 250 rpm for 22 h. Absorbance at 290 nm was measured for propranolol using an Infinite […] plate reader (Infinite […] plate reader, Tecan). For the other samples, fluorescence measurements were performed after the compounds were reacted with 0.02% fluorescamine. The rate of passive diffusion was calculated as the linear velocity of permeation (Pe). The data represent an average of three independent biological replicates.
(The PAMPA barrier holds no transporters, so it reflects passive diffusion.)

Structures are written as SMILES.

Regarding `C[C@@H](O)[C@H](NC(=O)[C@H](Cc1ccccc1)NC(=O)[C@H](Cc1ccc(O)cc1)NC(=O)CN(CCCCN)C(=O)[C@H](CCCNC(=N)N)NC(=O)[C@H](CCCNC(=N)N)NC(=O)[C@H](CCCNC(=N)N)NC(=O)[C@H](CCC(N)=O)NC(=O)[C@H](CCCNC(=N)N)NC(=O)[C@H](CCCNC(=N)N)NC(=O)[C@H](CCCCN)NC(=O)[C@H](CCCCN)NC(=O)[C@@H](N)CCCNC(=N)N)C(=O)NCC(=O)N[C@@H](CO)C(=O)N[C@@H](CCCCN)C(=O)N[C@@H](CC(=O)O)C(=O)N[C@@H](Cc1c[nH]c2ccccc12)C(=O)N[C@@H](CCCNC(=N)N)C(=O)N[C@@H](CO)C(=O)N[C@@H](Cc1ccc(O)cc1)C(=O)N[C@@H](Cc1ccc(O)cc1)C(=O)N[C@@H](CO)C(=O)O` [1f], the “Tau protein digested by h20S” value in data set [1] is recorded as “more than 90%”. Further, the “effect on endogenous α-synuclein in primary cortical cultures” value in data set [2] is “able to reduce the amount of endogenous α-synuclein”. For the same compound, the “permeability across artificial BBB membrane, PAMPA” value in data set [3] is listed as “had the ability to penetrate the artificial membrane mimicking the BBB”.
